Consider 9 molecules from patent publication US4598077A, “Amidine derivatives and cardiotonic compositions” (Torii & Co. Ltd., priority 1983, dated 1986).

Counter-ions that a name gives are not always drawn. Like-named read-outs stand apart in the source and are kept apart here.

Data set [1] has as its system anesthetized open-chest dogs. The experiment in a line: Cardiovascular effect in anesthetized open-chest dogs (Table 2). The following applies: femoral vein; for change in vivo at 0.03 mg/kg / change in vivo at 0.1 mg/kg / change in vivo at 0.3 mg/kg: Canis lupus familiaris, iv. It counts as in vivo, Mongrel dogs. How it is done:
Mongrel dogs of either sex weighing 9-15 kg were anesthetized with sodium pentobarbital (30 mg/kg, i.v.). The heart was exposed by thoractomy by the left fifth intercostal incision under artificial respiration. Aortic flow was measured by the probe of electromagnetic flowmeter placed around the ascending aorta. Myocardial contractility was measured by the maximal rate of rise of left ventricular pressure which was recorded from a needle inserted into the ventricular cavity. The systemic blood pressure was measured with a pressure transducer by means of a polyethylene cannular inserted into the femoral artery. The heart rate was recorded by a cardiotrachometer triggered by R wave of electrocargiogram (Lead II). Test compounds were dissolved in vehicle solution and were injected into the femoral vein. The effects of each compound on the cardiac contractility and aortic flow were evaluated as a percentage change in values determined before and after administration of the compound. In Table 2 are shown such changes in terms of the percentage increase after administration.

A short description of data set [2]: Toxicity (LD50). The following applies: in vivo, iv; mouse; I.V.
Data set [3] deals with right atrium preparation. The data set can be described thus: Isolated, blood-perfused right atrium preparation, sinus rate (Table 1). Further details: species or system Mongrel dogs. The note with it: Canis lupus familiaris, close-arterial injection, read-out: Right atrium preparation; for activation at 0.03 mg: dose 30 μg; for activation at 0.03 mg / activation at 0.1 mg / activation at 0.3 mg: % increase in sinus rate; for activation at 0.1 mg / inhibition at 0.1 mg: dose 100 μg. How it is done:
Mongrel dogs of either sex weighting 7.5-10 kg were anesthetized with sodium pentobarbital (30 mg/kg, i.v.). Each animal was given an intravenous dose of sodium heparin (500 units/kg), thereafter, the heart was removed and placed in cold Tyrode solution. The isolated and cross-circulated right atrium and papillary muscle preparations were arranged for perfusion from a donor dog as follows. The donor dog was also anesthetized with sodium pentobarbital (30 mg/kg, i.v.); heparin (500 units/kg) was given intravenously immediately before the perfusion began. (b) The isolated, blood-perfused right atrium preparation. The sinus node artery was cannulated at its origin in the right coronary artery. A right atrial electrogram was obtained from bipolar electrodes which were placed in close proximity to the sinoatrial node. The sinus rate was recorded by a cardiotachometer triggered by the right atrial electrogram. The details of the bloodperfused right atrium preparation have been described by Chiba et al. (Tohoku J. exp. Med., 107, 101-102 (1972) and Kubota and Hashimoto (Naunyn-Schmiedeberg's Arch. Pharmacol., 278, 135-150 (1973)). Each preparation was perfused with the arterial blood from the carotid artery of the donor dog at a constant perfusion pressure of 100 mmHg by means of a peristaltic pump. The venous effluent from the preparations was collected in a reservoir and returned to the donor dog through the jugular vein. Test compounds used in these experiments were dissolved in vehicle solution and were injected closearterially to the preparations. The effects of each compound on the developed tension and sinuo rate were evaluated as a percentage change in values determined before and after administration of the compound. In Table 1 are shown such changes in terms of the percentage increase after administration.

Data set [4] deals with papillary muscle preparation. The data set can be described thus: Isolated, blood-perfused papillary muscle preparation, developed tension (Table 1). On the set-up: species or system Mongrel dogs. The following applies: Canis lupus familiaris, close-arterial injection, read-out: Papillary muscle preparation, % increase in developed tension; for activation at 0.03 mg: dose 30 μg; for activation at 0.1 mg: dose 100 μg; for activation at 0.3 mg: dose 300 μg. How it is done: Mongrel dogs of either sex weighting 7.5-10 kg were anesthetized with sodium pentobarbital (30 mg/kg, i.v.). Each animal was given an intravenous dose of sodium heparin (500 units/kg), thereafter, the heart was removed and placed in cold Tyrode solution. The isolated and cross-circulated right atrium and papillary muscle preparations were arranged for perfusion from a donor dog as follows. The donor dog was also anesthetized with sodium pentobarbital (30 mg/kg, i.v.); heparin (500 units/kg) was given intravenously immediately before the perfusion began. (a) The isolated, blood-perfused papillary muscle preparation. The anterior septal artery was dissected and cannulated with polyethylene tubing. The tendinous end of the papillary muscle was connected to a strain-gauge transducer by a fine silk thread and the muscles were under about 2 g of resting tension. The papillary muscle preparation was electrically driven at a constant frequency of 120/min with rectangular pulses of 1-3 V and 5 msec duration. The preparation of the blood-perfused papillary muscle has been described in detail by Endoh and Hashimoto Am. J. Physiol, 218, 1459-1463 (1970). Each preparation was perfused with the arterial blood from the carotid artery of the donor dog at a constant perfusion pressure of 100 mmHg by means of a peristaltic pump. The venous effluent from the preparations was collected in a reservoir and returned to the donor dog through the jugular vein. Test compounds used in these experiments were dissolved in vehicle solution and were injected closearterially to the preparations. The effects of each compound on the developed tension and sinuo rate were evaluated as a percentage change in values determined before and after administration of the compound. In Table 1 are shown such changes in terms of the percentage increase after administration.

Setting [5] is: 0.03 mg/kg, read-out: Increase in aortic flow (%).
The mark [6] stands for this setting: 0.03 mg/kg, read-out: Increase in cardiac contractility (%).
Setting [7] is: read-out: Increase in aortic flow (%).
The mark [8] stands for this setting: read-out: Increase in cardiac contractility (%).
Setting [9] is: 0.3 mg/kg, read-out: Increase in aortic flow (%).
Where [10] appears, read: 0.3 mg/kg, read-out: Increase in cardiac contractility (%).
The mark [11] stands for this setting: % decrease in sinus rate (in parentheses).

For the molecule `Cl.Cl.N=C(N)c1ccc(CCc2ccc(CN)cc2)cc1` [Compound 2, 4-[2-(4-Aminomethylphenyl)ethyl]benzamidine dihydrochloride], the change in vivo at 0.03 mg/kg is 5% in data set [1] (setting [5]) and 7.1% in data set [1] (setting [6]). Also, the change in vivo at 0.1 mg/kg in data set [1] (setting [7]) was 16.1%; in data set [1] (setting [8]), 25%. Further, in data set [2], the LD50 was 40 mg/kg. In addition, the activation at 0.03 mg turned out to be 10.7% in data set [3] and 63.8% in data set [4]. The activation at 0.1 mg in data set [3] came to 21.8%; in data set [4], 104%.

Consider `Cl.Cl.N=C(NCCc1ccccc1)c1ccc(CCc2ccc(CN)cc2)cc1` [Compound 5, 4-[2-(4-Aminomethylphenyl)ethyl]-N-(2-phenylethyl)benzamidine dihydrochloride], for which the change in vivo at 0.1 mg/kg came out at 5% in data set [1] (setting [7]) and 12.9% in data set [1] (setting [8]). Also, the figures for the change in vivo at 0.3 mg/kg in data set [1] (setting [9]) and in data set [1] (setting [10]) were 19.2% and 38.9%, respectively. This molecule also came in with an LD50 in data set [2] of 57.7 mg/kg. Besides, the activation at 0.03 mg in data set [3] is 16%; in data set [4], 33.3%. Moreover, the activation at 0.1 mg came to 17.7% in data set [3] and 53.5% in data set [4].

On to `CC(=O)O.CC(=O)O.N=C(N)c1ccc(OCc2ccc(CN)cc2)cc1` [Compound 8, 4-(4-aminomethylbenzyloxy)benzamidine diacetate], for which the values for the change in vivo at 0.1 mg/kg in data set [1] (setting [7]) and in data set [1] (setting [8]) were 6.1% and 0%, respectively. Moreover, the change in vivo at 0.3 mg/kg in data set [1] (setting [9]) worked out at 9.5%; in data set [1] (setting [10]), 16.7%. In data set [2], this molecule gave an LD50 of 57.7 mg/kg. For the same molecule, in data set [3] (setting [11]), the inhibition at 0.1 mg amounted to 7.7%. The figures for the activation at 0.1 mg in data set [3] and in data set [4] were 2.2% and 20.7%, respectively. Besides, the inhibition at 0.3 mg in data set [3] (dose 300 μg, % decrease in sinus rate (in parentheses)) was determined as 9.7%. The activation at 0.3 mg in data set [3] (dose 300 μg) amounted to 7.5%; in data set [4], 44.8%.

On to `NCc1ccc(CCc2ccc(C3=NCCN3)cc2)cc1` [Compound 15, 2-{4-[2-(4-Aminomethylphenyl)ethyl]phenyl}imidazoline dihydrochloride], for which the change in vivo at 0.1 mg/kg was 5.9% in data set [1] (setting [7]) and 25% in data set [1] (setting [8]). The change in vivo at 0.3 mg/kg in data set [1] (setting [9]) is 10%; in data set [1] (setting [10]), 56.5%. Also, the activation at 0.03 mg in data set [3] was determined as 22.8%; in data set [4], 49.2%. In addition, the activation at 0.1 mg in data set [3] came out at 34.7%; in data set [4], 100%.

Consider `CNC(=N)c1ccc(CCc2ccc(CN)cc2)c([N+](=O)[O-])c1.Cl.Cl` [Compound 16, 4-[2-(4-Aminomethylphenyl)ethyl]-N-methyl-3-nitrobenzamidine dihydrochloride], for which the “% decrease in aortic flow (in parentheses)” value (from here on “% decrease in aortic flow”) in data set [1] (0.3 mg/kg) is listed as -7.0%. Also, the change in vivo at 0.1 mg/kg in data set [1] (setting [7]) was determined as 9%; in data set [1] (setting [8]) it was 32%. In addition, the figures for the change in vivo at 0.3 mg/kg in data set [1] (setting [9]) and in data set [1] (setting [10]) were 16.3% and 69.4%, respectively. For the same molecule, the results for the activation at 0.03 mg in data set [3] and in data set [4] were 21.9% and 26%, respectively. The activation at 0.1 mg came out at 29.7% in data set [3] and 70.2% in data set [4].

As for `CN=C(NC)c1ccc(CCc2ccc(CN)cc2OC)cc1` [Compound 17, 4-[2-(4-Aminomethyl-2-methoxyphenyl)ethyl]-N,N'-dimethylbenzamidine dihydrochloride], the change in vivo at 0.03 mg/kg in data set [1] (setting [5]) stood at 4.7%; in data set [1] (setting [6]) it was 13.5%. Moreover, the figures for the change in vivo at 0.1 mg/kg in data set [1] (setting [7]) and in data set [1] (setting [8]) were 17% and 76.5%, respectively. The activation at 0.1 mg in data set [3] was 14.3%; in data set [4], 76.5%. The activation at 0.3 mg in data set [3] (dose 300 μg) came out at 20.3%; in data set [4], 110%.

Turning to `CN=C(NC)c1ccc(CCc2ccc(CN)cc2[N+](=O)[O-])cc1.Cl.Cl` [Compound 18, 4-[2-(4-Aminomethyl-2-nitrophenyl)ethyl]-N,N'-dimethylbenzamidine dihydrochloride], the “% decrease in aortic flow” value in data set [1] (0.3 mg/kg) is listed as -5.3%. Further, the change in vivo at 0.1 mg/kg in data set [1] (setting [7]) was determined as 14.3%; in data set [1] (setting [8]) it was 59.3%. Besides, the figures for the change in vivo at 0.3 mg/kg in data set [1] (setting [9]) and in data set [1] (setting [10]) were 23.7% and 155%, respectively. Besides, the inhibition at 0.1 mg in data set [3] (setting [11]) was found to be 1.8%. Further, the activation at 0.1 mg in data set [3] is 14%; in data set [4] it was 64%. Besides, the activation at 0.3 mg was 34.8% in data set [3] (dose 300 μg) and 86.5% in data set [4].

`COc1cc(CN)ccc1CCc1ccc(C(=N)NCCc2ccccn2)cc1.Cl.Cl.Cl` [Compound 19, 4-[2-(4-Aminomethyl-2-methoxyphenyl)ethyl]-N-[2-(2-pyridyl)ethyl]benzamidine trihydrochloride]: in data set [1] (0.3 mg/kg), the “% decrease in aortic flow” value was -1.2%. In data set [1] (0.3 mg/kg), the “% decrease in cardiac contractility (in parentheses)” value is on record as -7.1%. For the same molecule, the change in vivo at 0.1 mg/kg in data set [1] (setting [7]) was found to be 9.2%; in data set [1] (setting [8]), 20%. The change in vivo at 0.3 mg/kg worked out at 11.9% in data set [1] (setting [9]) and 129% in data set [1] (setting [10]). Besides, the activation at 0.1 mg stood at 21.9% in data set [3] and 72.4% in data set [4]. The activation at 0.3 mg was found to be 35.8% in data set [3] (dose 300 μg) and 108% in data set [4].

`COc1cc(CN)ccc1CCc1ccc(C2=NCCN2)cc1` [Compound 20, 2-{4-[2-(4-Aminomethyl-2-methoxyphenyl)ethyl]phenyl}imidazoline dihydrochloride]: in data set [1] (0.03 mg/kg), the “% decrease in aortic flow” value is on record as -1.1%. Moreover, the “% decrease in cardiac contractility (in parentheses)” value in data set [1] (0.03 mg/kg) is given as -7.8%. In addition, the results for the change in vivo at 0.03 mg/kg in data set [1] (setting [5]) and in data set [1] (setting [6]) were 7.9% and 78.6%, respectively. Further, the values for the activation at 0.1 mg in data set [3] and in data set [4] were 26.8% and 72.2%, respectively. The activation at 0.3 mg in data set [3] (dose 300 μg) turned out to be 45.7%; in data set [4] it was 104%.
